Results from PubChem BioAssay (NCI).
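A five-concentration, 48-hour dose response in 96-well plates underlies each endpoint, interpolated linearly between surrounding concentrations. Here, GI50 denotes the concentration required for 50% inhibition of growth. The concentration for full growth arrest is given as TGI.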

Experiments:
Assay in all cases: NCI tumour cell line growth inhibition, 48 h
HCC-2998 colon = tested on: HCC-2998 colon
NCI-H226 lung = tested on: NCI-H226 lung
SK-MEL-28 melanoma = tested on: SK-MEL-28 melanoma
TK-10 renal = tested on: TK-10 renal
UACC-257 melanoma = tested on: UACC-257 melanoma
UO-31 renal = tested on: UO-31 renal
A498 renal = tested on: A498 renal
DU-145 prostate = tested on: DU-145 prostate
HL-60(TB) leukemia = tested on: HL-60(TB) leukemia
T-47D breast = tested on: T-47D breast

## CC1NC(=O)C2=C1C(N)=NC(=O)C2 (stereo unspecified)
HCC-2998 colon
  TGI: > 100 µM
NCI-H226 lung
  TGI: > 100 µM
SK-MEL-28 melanoma
  TGI: > 100 µM
TK-10 renal
  TGI: > 100 µM
UACC-257 melanoma
  TGI: > 100 µM
UO-31 renal
  TGI: > 100 µM

## Cc1ccc(-c2nc([P+](c3ccccc3)(c3ccccc3)c3ccccc3)c(Nc3ccccc3)o2)cc1
A498 renal
  GI50: 1.12 µM
  TGI: 2.46 µM
DU-145 prostate
  GI50: 1.2 µM
  TGI: 2.48 µM
HCC-2998 colon
  GI50: 0.659 µM
  TGI: 2.02 µM
HL-60(TB) leukemia
  GI50: 0.395 µM
  TGI: 1.3 µM
SK-MEL-28 melanoma
  GI50: 1.22 µM
  TGI: 2.52 µM
TK-10 renal
  GI50: 1.27 µM
  TGI: 2.78 µM
UACC-257 melanoma
  GI50: 0.831 µM
  TGI: 2.7 µM
UO-31 renal
  GI50: 0.421 µM
  TGI: 1.73 µM

## CCOc1ccc(O)cc1[P+](c1ccccc1)(c1ccccc1)c1ccccc1
A498 renal
  TGI: 29.5 µM
HCC-2998 colon
  TGI: 13.4 µM
NCI-H226 lung
  TGI: 14.5 µM
SK-MEL-28 melanoma
  TGI: 22.6 µM
TK-10 renal
  TGI: 12.9 µM
UACC-257 melanoma
  TGI: 5.9 µM
UO-31 renal
  TGI: 52.5 µM

## CSCCCNC(=O)c1csc(-c2csc(CCNC(=O)CNC(=O)CNC(=O)OC(C)(C)C)n2)n1
A498 renal
  TGI: > 100 µM
DU-145 prostate
  TGI: > 100 µM
HCC-2998 colon
  TGI: > 100 µM
HL-60(TB) leukemia
  TGI: > 100 µM
NCI-H226 lung
  TGI: > 100 µM
SK-MEL-28 melanoma
  TGI: > 100 µM
TK-10 renal
  TGI: > 100 µM
UACC-257 melanoma
  TGI: > 100 µM
UO-31 renal
  TGI: > 100 µM

## C=CCOC(=O)C1CCC(=O)N1C(=O)C(Cl)Cl (stereo unspecified)
A498 renal
  TGI: > 100 µM
HCC-2998 colon
  TGI: > 100 µM
HL-60(TB) leukemia
  TGI: > 100 µM
NCI-H226 lung
  TGI: > 100 µM
SK-MEL-28 melanoma
  TGI: > 100 µM
TK-10 renal
  TGI: > 100 µM
UACC-257 melanoma
  TGI: > 100 µM
UO-31 renal
  TGI: > 100 µM

## O=C(OC/C=C1C=C(OC(=O)c2ccccc2)/C(=N/N(C(=O)c2ccccc2)c2ccccc2)O\1)c1ccccc1
A498 renal
  TGI: 25.6 µM
HCC-2998 colon
  TGI: 12.4 µM
HL-60(TB) leukemia
  GI50: < 0.01 µM
  TGI: 2.29 µM
NCI-H226 lung
  TGI: 54.1 µM
TK-10 renal
  TGI: 21.8 µM
UACC-257 melanoma
  TGI: 19.7 µM
UO-31 renal
  TGI: 0.517 µM

## O=C(C/C(CCC(=O)N(Cc1ccccc1)Cc1ccccc1)=N/Nc1ccc([N+](=O)[O-])cc1[N+](=O)[O-])c1ccccc1
HCC-2998 colon
  TGI: > 100 µM
HL-60(TB) leukemia
  TGI: > 100 µM
NCI-H226 lung
  TGI: > 100 µM
SK-MEL-28 melanoma
  TGI: > 100 µM
TK-10 renal
  TGI: > 100 µM
UACC-257 melanoma
  TGI: > 100 µM
UO-31 renal
  TGI: > 100 µM

## NCCCCCCNCc1cccc2ccccc12
HL-60(TB) leukemia
  TGI: > 100 µM
NCI-H226 lung
  TGI: > 100 µM
SK-MEL-28 melanoma
  TGI: > 100 µM
TK-10 renal
  TGI: > 100 µM
UACC-257 melanoma
  TGI: > 100 µM
UO-31 renal
  TGI: > 100 µM

## O=c1[nH]c(=O)n(C2OC(CO)C(O)C2O)cc1OCC(F)(F)F (stereo unspecified)
A498 renal
  TGI: > 100 µM
HCC-2998 colon
  TGI: > 100 µM
HL-60(TB) leukemia
  TGI: > 100 µM
NCI-H226 lung
  TGI: > 100 µM
SK-MEL-28 melanoma
  TGI: > 100 µM
TK-10 renal
  TGI: > 100 µM
UACC-257 melanoma
  TGI: > 100 µM
UO-31 renal
  TGI: > 100 µM

## COc1cc2c(cc1C1=NC(C)(C)CO1)OCO2
HL-60(TB) leukemia
  TGI: > 100 µM
NCI-H226 lung
  TGI: > 100 µM
SK-MEL-28 melanoma
  TGI: > 100 µM
TK-10 renal
  TGI: > 100 µM
UACC-257 melanoma
  TGI: > 100 µM
UO-31 renal
  TGI: > 100 µM

## CCOC(=O)/C(=C/c1ccc(N(CCC#N)CCC#N)cc1C)NC(=O)/C=C/c1ccccc1
A498 renal
  TGI: > 100 µM
HCC-2998 colon
  TGI: > 100 µM
HL-60(TB) leukemia
  TGI: > 100 µM
NCI-H226 lung
  TGI: > 100 µM
SK-MEL-28 melanoma
  TGI: > 100 µM
TK-10 renal
  TGI: > 100 µM
UACC-257 melanoma
  TGI: > 100 µM
UO-31 renal
  TGI: > 100 µM

## O=C1C2C3C=C4c5ccccc5N(c5ccccc5)C4(C2C(=O)N1c1ccc(Br)cc1)[C@H]1C(=O)N(c2ccc(Br)cc2)C(=O)[C@@H]31 (stereo partly specified)
A498 renal
  TGI: > 100 µM
HL-60(TB) leukemia
  TGI: > 100 µM
NCI-H226 lung
  TGI: > 100 µM
TK-10 renal
  TGI: > 100 µM
UACC-257 melanoma
  TGI: > 100 µM
UO-31 renal
  TGI: > 100 µM

## CC1=C[C@H]2C[C@H](C)[C@H]3CC[C@H](C)[C@]4(C1)C(=O)C(O)=C(C)C(=O)[C@@]324
DU-145 prostate
  GI50: 43.3 µM
  TGI: > 100 µM
HCC-2998 colon
  GI50: 19.6 µM
  TGI: 47.2 µM
HL-60(TB) leukemia
  GI50: 15.7 µM
  TGI: 33.1 µM
NCI-H226 lung
  GI50: 33 µM
  TGI: > 100 µM
SK-MEL-28 melanoma
  GI50: 26 µM
  TGI: > 100 µM
T-47D breast
  GI50: 19.1 µM
  TGI: > 100 µM
TK-10 renal
  GI50: 47.4 µM
  TGI: > 100 µM
UACC-257 melanoma
  GI50: 59.2 µM
  TGI: > 100 µM
UO-31 renal
  GI50: 29.8 µM
  TGI: > 100 µM

## COC(=O)/C=c1\s/c(=C\C(=O)OC)c2ccccc12
A498 renal
  TGI: > 100 µM
HCC-2998 colon
  TGI: > 100 µM
HL-60(TB) leukemia
  TGI: > 100 µM
NCI-H226 lung
  TGI: > 100 µM
SK-MEL-28 melanoma
  TGI: > 100 µM
TK-10 renal
  TGI: > 100 µM
UACC-257 melanoma
  TGI: > 100 µM
UO-31 renal
  TGI: > 100 µM

## COC1C2c3cc4c(cc3CC(C#N)(c3ccccc32)N1C(=O)c1ccccc1)OCO4 (stereo unspecified)
HCC-2998 colon
  TGI: > 100 µM
HL-60(TB) leukemia
  TGI: > 100 µM
NCI-H226 lung
  TGI: > 100 µM
SK-MEL-28 melanoma
  TGI: > 100 µM
TK-10 renal
  TGI: > 100 µM
UACC-257 melanoma
  TGI: > 100 µM
UO-31 renal
  TGI: > 100 µM

## O=C(C[P+](c1ccccc1)(c1ccccc1)c1ccccc1)C[P+](c1ccccc1)(c1ccccc1)c1ccccc1
A498 renal
  GI50: 0.223 µM
  TGI: 1.02 µM
DU-145 prostate
  GI50: 0.327 µM
  TGI: 1.3 µM
HCC-2998 colon
  GI50: 0.784 µM
  TGI: 2.17 µM
HL-60(TB) leukemia
  GI50: 0.256 µM
  TGI: 2.57 µM
NCI-H226 lung
  GI50: 0.197 µM
  TGI: 0.612 µM
SK-MEL-28 melanoma
  GI50: 0.332 µM
  TGI: 1.29 µM
TK-10 renal
  GI50: 0.326 µM
  TGI: 1.09 µM
UACC-257 melanoma
  GI50: 0.416 µM
  TGI: 1.28 µM
UO-31 renal
  GI50: 0.218 µM
  TGI: 0.855 µM
